Test results published in US8128802B2, “Analysis apparatus and analysis method for glycosylated hemoglobin” (OJI Paper Co., Ltd, priority 2005, dated 2012).

What was measured:
Format in all cases: biochemical
[1] = tested on: fructosyl amino acid oxidase; test: Substrate specificity of fructosyl amino acid oxidase-immobilized column (Example 3); settings: buffers pH 8.0; for Relative response value: normalized to 100 for the response to fructosyl glycine, 37° C., dialysis module
Text: The buffer was removed as far as possible. […] The support immobilized enzyme was packed into the column (internal diameter: 3.5 mm, length: 30 mm) to give the fructosyl amino acid oxidase-immobilized column. In the assay apparatus shown in FIG. 2, the flow type calorimeter (16), the protease-immobilized column (14) and the first immobilized enzyme column (17) were not disposed, and the electrode for glucose was placed in the electrode for hydrogen peroxide (18), the fructosyl amino acid oxidase-immobilized column in the second immobilized enzyme column (19), and the electrode for hydrogen peroxide in the electrode for hydrogen peroxide (20). The buffer B was pumped out from the buffer tank (24) using the pump (25), and a 100 μL portion of the sample was injected using the valve (4). […] Since the buffer A was pumped out from the buffer tank (1) by the pump (2), the components with low molecular weight in the sample dialyzed in the dialysis module (27) passed through the electrode for glucose (18), the fructosyl amino acid oxidase-immobilized column (19) and the electrode for hydrogen peroxide (20), and hydrogen peroxide from glucose and fructosyl amino acid in the sample was detected. […] The temperature in the incubator was 37° C. The substrate specificity of fructosyl amino acid oxidase-immobilized column for various fructosyl amino acids, fructosyl peptides, amino acids and sugars was examined using the assay apparatus mentioned in (4) when pH of the buffers was 8.0.

[2] = tested on: fructosyl amino acid oxidase; test: Characteristics of fructosyl amino acid oxidase-immobilized column (Example 5); settings: buffer pH 8.0, 37° C.
Experimental: FIG. 1 was the flow type assay apparatus with one flow path. The buffer A was pumped out from the buffer tank (1) using the pump (2), and a 5 μL portion of the sample was injected using the valve (4). The fructosyl amino acid oxidase-immobilized column was placed in the first immobilized enzyme column (17) and the electrode for hydrogen peroxide was placed downstream. The second immobilized enzyme column (19), the second electrode for hydrogen peroxide (20), the protease-immobilized column (14) and the flow type calorimeter (16) were not disposed. The injected sample transferred with the flowing buffer, passed through the mixing coil (15) in the incubator (13), and thus the sample temperature was adjusted and the sample was mixed with the buffer. The sample passed through the fructosyl amino acid oxidase-immobilized column (17) and the electrode for hydrogen peroxide (18), hydrogen peroxide was produced from fructosyl valine in the sample, and the change of the current was detected.
The composition of the buffer for this assay apparatus contained 100 mM phosphoric acid, 50 mM potassium chloride and 1 mM sodium azide, and its pH was 8.0.
The flow rate of the buffer was 1.0 mL/minute, and the temperature in the incubator was 37° C.
Using the assay apparatus 1 mentioned in (3), a 5 μL portion of fructosyl glycine was injected, and the characteristics of the fructosyl amino acid oxidase-immobilized column was examined.
When pH in the buffer was 7.0, 7.5, 8.0, 8.5 or 9.0, the activity in the oxidation of fructosyl glycine was measured.

[3] = tested on: fructosyl peptide oxidase; test: Substrate specificity, pH profile and stability of fructosyl peptide oxidase-immobilized column (Example 1); settings: for Relative activity (%) pH 6.0: buffer pH 6.0; for Relative activity (%) pH 6.0 / Relative activity (%) pH 7.0 / Relative activity (%) pH 8.0: normalized to 100 for the response to fructosyl valine at each pH, 30° C.; for Relative activity (%) pH 7.0: buffer pH 7.0; for Relative activity (%) pH 8.0: buffer pH 8.0
Experimental: Firebrick powder (150 mg, 30 to 60 meshes) was thoroughly dried, immersed in a 10% solution of γ-aminopropyltriethoxysilane in anhydrous toluene for one hour, then thoroughly washed with anhydrous toluene and dried. The aminosilane-modified support was immersed in a 5% aqueous glutaraldehyde solution for one hour, and then thoroughly washed with distilled water, followed by substitution with 100 mM sodium phosphate buffer (pH 7.0). The buffer was removed as far as possible. A solution ([…]) of fructosyl peptide oxidase (140 units/mL, from Kikkoman Co.) in 100 mM sodium phosphate buffer (pH 7.0) was contacted with the formylated firebrick powder, and then incubated at 0 to 4° C. for one day for the enzyme immobilization. The support immobilized enzyme was packed into a column (internal diameter: 3.5 mm, length: 30 mm) to give the fructosyl peptide oxidase-immobilized column.
The buffer was pumped out from a buffer tank (1) using a pump (2), and 5 μL of a sample was injected using a valve (4). A protease-immobilized column (14), a flow type calorimeter (16), a second immobilized enzyme column (19) and a second electrode for hydrogen peroxide (20) were not placed, and a fructosyl peptide oxidase-immobilized column was placed as a first immobilized enzyme column (17), followed by an electrode for hydrogen peroxide (18) downstream thereof. The injected sample transferred with the flowing buffer, passed through a mixing coil (15) inside an incubator (13), and thus the sample temperature was adjusted and the sample was mixed with the buffer. The sample passed through the fructosyl peptide oxidase-immobilized column (17) and the electrode for hydrogen peroxide (18) to produce hydrogen peroxide from fructosyl valylhistidine in the sample, and then the change of the current was detected.
A composition of the buffer used in this assay apparatus contained 100 mM phosphoric acid, 50 mM potassium chloride and 1 mM sodium azide, and its pH was 7.0.
(§1) The flow rate of the buffer was 1.0 mL/minute, and the temperature in the incubator was 30° C.
Using the assay apparatus described in (3), a 5 μL portion of fructosyl glycine, fructosyl valine or fructosyl valylhistidine was injected, and the characteristics of the fructosyl peptide oxidase-immobilized column was examined.
When pH of the buffer was 6.0, 7.0 or 8.0, the assay results of the activity for the oxidation of fructosyl glycine (FG), fructosyl valine (FV) or fructosyl valylhistidine (FVH) were shown in FIG. 3. For fructosyl glycine the activity was high at pH 8.0, but the activity at pH 6.0 was decreased to about 50% of that at pH 8.0. For fructosyl valine and fructosyl valylhistidine, the activity was high at pH 6.0 and 7.0.
Response values in Table 1 were normalized to 100 for the response to fructosyl valine at each pH.

[4] = tested on: fructosyl peptide oxidase; test: Substrate specificity of fructosyl peptide oxidase-immobilized column (Example 4); settings: buffer A pH 7.0; for Relative response value: normalized to 100 for the response to fructosyl valine, 30° C.
Experimental: In the same way as described in Example 1 (1), 150 mg of firebrick powder (30 to 60 meshes) was formylated. The solution (200 μL) of fructosyl peptide oxidase (140 units/mL, from Kikkoman Co.) in 100 mM sodium phosphate buffer (pH 7.0) was contacted with the formylated firebrick powder, and then incubated at 0 to 4° C. for one day for the enzyme immobilization.
In the assay apparatus shown in FIG. 1, the protease-immobilized column (14), the flow type calorimeter (16) and the first immobilized enzyme column (17) were not disposed, and the electrode for glucose was placed in the electrode for hydrogen peroxide (18), the fructosyl peptide oxidase-immobilized column in the second immobilized enzyme column (19), and the electrode for hydrogen peroxide in the electrode for hydrogen peroxide (20). The buffer A was pumped out from the buffer tank (1) by the pump (2), and a 5 μL portion of the sample was injected using the valve (4). The injected sample transferred with the flowing buffer A, passed through the mixing coil (15) in the incubator (13), and thus the sample temperature was adjusted and the sample was mixed with the buffer. And then the sample passed through the downstream electrode for glucose (18), fructosyl peptide oxidase-immobilized column (19) and an electrode for hydrogen peroxide (20), hydrogen peroxide was produced from fructosyl valylhistidine in the sample, and the change of the current was detected.
The composition of the buffer A for the assay apparatus contained 100 mM phosphoric acid, 50 mM potassium chloride and 1 mM sodium azide, and its pH was 7.0.
as §1
On fructosyl peptide oxidase-immobilized column, the substrate specificity for various fructosyl amino acids, fructosyl peptides, amino acids and sugars was examined using the assay apparatus mentioned in (4) when pH of the buffer A was 7.0. In the Table 4, the relative values were normalized to 100 for the response to fructosyl valine.

Relative response value [1] | Relative activity (%) ([2]; sample concentration 10 mM) | Relative activity (%) pH 6.0 [3] | Relative activity (%) pH 7.0 [3] | Relative activity (%) pH 8.0 [3] | Relative response value [4] | response of fructosyl amino acid oxidase-immobilized column [1] | SMILES | Relative activity (%) ([2]; sample concentration 0.1 mM) | response of fructosyl peptide oxidase-immobilized column (in words) ([3]; at any pH (6.0, 7.0, 8.0)) | response of fructosyl peptide oxidase-immobilized column (in words) [4]
0.0 | 41.0% | 0% | 0% | 0% | 0.0 |  | NCCCC[C@H](N)C(=O)O [Lys] |  |  | 
0.1 | 8.0% | 0% | 0% | 0% | 0.0 | extremely small responses | CSCC[C@H](N)C(=O)O [Met] |  |  | 
0.0 | 0.0% | 0% | 0% | 0% | 0.0 |  | N[C@@H](Cc1ccccc1)C(=O)O [Phe] |  |  | 
0.0 | 2.0% | 0% | 0% | 0% | 0.0 |  | O=C(O)[C@@H]1CCCN1 [Pro] |  |  | 
0.0 | 0.0% | 0% | 0% | 0% | 0.0 |  | N[C@@H](CO)C(=O)O [Ser] |  |  | 
0.0 | 2.0% | 0% | 0% | 0% | 0.0 |  | C[C@@H](O)[C@H](N)C(=O)O [Thr] |  |  | 
0.0 | 13.0% | 0% | 0% | 0% | 0.0 |  | N[C@@H](Cc1c[nH]c2ccccc12)C(=O)O [Trp] |  |  | 
0.0 | 0.0% | 0% | 0% | 0% | 0.0 |  | CC(C)[C@H](N)C(=O)O [Val] |  |  | 
0.0 | 0.0% | 0% | 0% | 0% | 0.0 |  | O=C[C@H](O)[C@@H](O)[C@H](O)CO [Xylose] |  |  | 

SMILES | Relative response value [1] | Relative activity (%) ([2]; sample concentration 10 mM) | Relative activity (%) pH 6.0 [3] | Relative activity (%) pH 7.0 [3] | Relative activity (%) pH 8.0 [3] | Relative response value [4] | response of fructosyl amino acid oxidase-immobilized column [1] | Relative activity (%) ([2]; sample concentration 0.1 mM) | response of fructosyl peptide oxidase-immobilized column (in words) ([3]; at any pH (6.0, 7.0, 8.0)) | response of fructosyl peptide oxidase-immobilized column (in words) [4]
O=C(O)[C@H](CCCCNCC(=O)[C@@H](O)[C@H](O)[C@H](O)CO)NCC(=O)[C@@H](O)[C@H](O)[C@H](O)CO [α, ε-Fructosyl lysine] | 1.1 |  | 9% | 10% | 11% | 9.9 |  | 5.0% | scarcely responded | scarcely responded
